Experimental data as given in the CheMixHub ionic liquid set.

Test: xn = mol fraction of the nth substance listed

CC[n+]1ccn(C)c1.O=S(=O)([O-])C(F)(F)F + CC1COC(=O)O1
101 kPa
Settings | viscosity [mPa·s]
288.15 K, x1 = 0.3005 | 10.78
288.15 K, x1 = 0.3998 | 14.62
288.15 K, x1 = 0.5001 | 18.7
293.15 K, x1 = 0.0999 | 5.28
293.15 K, x1 = 0.8004 | 32.5
298.15 K, x1 = 0.8004 | 27.2
298.15 K, x1 = 0.8998 | 32.5
298.15 K, x1 = 1 | 40.4
303.15 K, x1 = 0.0999 | 3.91
303.15 K, x1 = 0.3998 | 8.9
303.15 K, x1 = 0.6987 | 18.4
303.15 K, x1 = 1 | 34
308.15 K, x1 = 0.5001 | 9.9
313.15 K, x1 = 0.8998 | 20.4
313.15 K, x1 = 1 | 24.9
318.15 K, x1 = 0.1999 | 3.52
318.15 K, x1 = 0.3005 | 4.44
318.15 K, x1 = 0.3998 | 5.86
318.15 K, x1 = 0.5001 | 7.69
318.15 K, x1 = 0.8998 | 17.7
323.15 K, x1 = 0.6987 | 10.72
323.15 K, x1 = 0.8998 | 15.47
328.15 K, x1 = 0.1999 | 2.81
328.15 K, x1 = 0.3005 | 3.48
328.15 K, x1 = 0.3998 | 4.58
328.15 K, x1 = 0.5001 | 6.16
328.15 K, x1 = 0.601 | 7.77
333.15 K, x1 = 0.3005 | 3.14
333.15 K, x1 = 0.6987 | 8.51
333.15 K, x1 = 0.8004 | 10.43
338.15 K, x1 = 0.601 | 6.33
338.15 K, x1 = 0.8004 | 9.21
343.15 K, x1 = 0.0999 | 1.74
343.15 K, x1 = 0.3998 | 3.35
353.15 K, x1 = 0.3005 | 2.29
353.15 K, x1 = 0.8998 | 8.38
353.15 K, x1 = 1 | 9.49

CCCCCCCC[n+]1ccc2ccccc2c1.O=S(=O)([N-]S(=O)(=O)C(F)(F)F)C(F)(F)F + c1ccccc1
101 kPa
Settings | viscosity [mPa·s]
298.15 K, x2 = 0 | 369
298.15 K, x2 = 0.4679 | 67
298.15 K, x2 = 0.673 | 10.93
298.15 K, x2 = 0.7443 | 5.93
308.15 K, x2 = 0.4679 | 40.99
318.15 K, x2 = 0 | 108.7
318.15 K, x2 = 0.332 | 47.7
318.15 K, x2 = 0.5663 | 16.93
328.15 K, x2 = 0.1505 | 50.4
328.15 K, x2 = 0.332 | 31.8
328.15 K, x2 = 0.673 | 4.75
338.15 K, x2 = 0.673 | 3.83
338.15 K, x2 = 0.8143 | 1.48
348.15 K, x2 = 0.332 | 16.29
348.15 K, x2 = 0.654 | 4.92
348.15 K, x2 = 0.8961 | 0.49

C[NH+](C)C.O=S(=O)([O-])O + O
298.15 K, 101 kPa
Settings | viscosity [mPa·s]
x2 = 0.0727 | 4.98
x2 = 0.2456 | 4.64
x2 = 0.3339 | 4.43
x2 = 0.5675 | 3.69
x2 = 0.8484 | 2.18
x2 = 0.9552 | 1.3

COCCOCCn1cc[n+](CCC#N)c1.O=S(=O)([N-]S(=O)(=O)C(F)(F)F)C(F)(F)F + CS(C)=O
101.3 kPa
Settings | electrical conductivity [S/m] | viscosity [mPa·s]
293.15 K, x1 = 0.1981 | 0.00634 | 8.12
293.15 K, x1 = 0.2776 | 0.00928 | –
303.15 K, x1 = 0.0989 | 0.00234 | –
303.15 K, x1 = 0.1981 | 0.00768 | –
303.15 K, x1 = 0.2776 | 0.0112 | 9.24
303.15 K, x1 = 0.5029 | 0.0405 | 26.2
303.15 K, x1 = 0.89 | 0.0942 | 83.1
313.15 K, x1 = 0.0989 | 0.00278 | –
313.15 K, x1 = 0.1981 | 0.00939 | –
313.15 K, x1 = 0.798 | 0.148 | 33.2
313.15 K, x1 = 0.89 | 0.125 | 51.5
323.15 K, x1 = 0.0989 | 0.00342 | –
323.15 K, x1 = 0.1981 | 0.0122 | 3.212
323.15 K, x1 = 0.798 | 0.203 | 24.66

CCCCCCCC[n+]1ccc2ccccc2c1.O=S(=O)([N-]S(=O)(=O)C(F)(F)F)C(F)(F)F + c1ccsc1
101 kPa
Settings | viscosity [mPa·s]
298.15 K, x2 = 0.542 | 42.73
298.15 K, x2 = 0.821 | 7.64
308.15 K, x2 = 0.0964 | 158.7
308.15 K, x2 = 0.542 | 27.8
308.15 K, x2 = 0.6385 | 16.12
308.15 K, x2 = 0.821 | 6.02
308.15 K, x2 = 0.9065 | 2.78
318.15 K, x2 = 0 | 108.7
318.15 K, x2 = 0.0964 | 92.2
318.15 K, x2 = 0.2739 | 54.7
318.15 K, x2 = 0.9065 | 2.36
338.15 K, x2 = 0.3572 | 20.4
348.15 K, x2 = 0.4456 | 11.37

CC[n+]1ccn(C)c1.O=S(=O)([O-])C(F)(F)F + CN(C)C=O
100 kPa
Settings | viscosity [mPa·s]
298.15 K, x2 = 0.1933 | 28.54
303.15 K, x2 = 0.406 | 12.55
308.15 K, x2 = 0.406 | 10.91
313.15 K, x2 = 0.5976 | 4.5
313.15 K, x2 = 0.7981 | 2.03
318.15 K, x2 = 0.0917 | 19.61
318.15 K, x2 = 0.1933 | 15.46
318.15 K, x2 = 0.2995 | 11.68
318.15 K, x2 = 0.6947 | 2.6
323.15 K, x2 = 0.6947 | 2.42
